Measurements from patent US20240254119A1 (THIRD HARMONIC BIO, INC., priority 2022, published 2024).

Experiments:
[1] = tested on: KIT phosphorylation in M-07e cells; experiment: Cell-based KIT phosphorylation in M-07e cells by pKIT ELISA; set-up: species or system human; conditions: SCF stimulation
Method: Exemplary compounds were tested for ability to inhibit KIT phosphorylation using M-07e cells as monitored by pKIT ELISA. M-07e cells are also represented as M-07E, M-07e, M07-e, M07e, Mo7e, MO7e, M07E and MO7E. Assay procedures and results are described below.
Part I—Procedures for Determining KIT Inhibition inM-07e Cells Using pKTT ELISA Reagents and consumables: • M-07e cells: Initially obtained from Accegen, cat #ABC-TC1313 • p-cKIT Capture ELISA antibody: anti-Human Phospho-CD117/c-kit, R&D cat #DYC3527-5 • Anti-pY-HIRP antibody: R&D cat #DYC3527-5 • 25× wash buffer: Quantikine ELISA Wash Buffer 1, R&D cat #WA126 • PBS: R&D cat #DY006 • 96 well ELISA plates: Clear Polystyrene Microplates, R&D Cat #DY990 • 96 well Tissue culture plates: Corning® 96 Well TC-Treated Microplates, cat #CLS3894 • RPMI medium: ATCC® RPMI-1640 Medium, Cat #30-2001 • FBS: Fetal Bovine Serum, certified, United States Gibco, Thermo-Fisher 16000044 • GM-CSF: Recombinant Human GM-CSF Protein, R&D cat #215-GM • SCF: Recombinant Human SCF Protein, R&D cat #255-SC
• 1. Prepare cells: • a. Culture M-07e cells in RPMI medium+20% serum+GM-CSF+penstrep • To make 50 mL of growth medium • i. 40 mL RPMI media • ii. 10 mL FBS • iii. 10 uL of GM-CSF (100 ug/mL stock) • iv. 0.5 mL pen strep (100×) • b. Harvest cells • c. Re-suspend cells in 100% RPMI media (without serum) to final concentration of 1 million cells/mL • d. Transfer 100 uL of cell solution to 11 columns of a 96 well flat bottom cell culture plate • e. Incubate cells over night at 37 C • 2. Prepare ELISA Plates: • a. Dilute capture antibody to concentration 4 ug/mL in PBS • b. Coat 96 well microplates with 100 uL of capture antibody • c. Seal plates and incubate at RT overnight • d. Wash plates with 300 uL of wash buffer • e. Repeat wash • f. Treat plates with 300 uL of blocking buffer at RT for 1 hour • 3. Addition of compounds: • a. Prepare compound dilutions in RPMI media • i. Top test concentration is 1 uM • ii. Serially dilute compounds 3× for a total of 8 concentrations • b. Add 10 uL of 10× compound dilutions to cells • i. No compounds added in column 11 (for controls) • c. Incubate cells with compounds for 2 hours at 37 C • d. Stimulate cells with SCF for 5 min at concentration of 100 ng/mL (final) • i. In column 11 stimulate top 4 wells. Leave bottom 4 wells unstimulated • e. Remove cell culture media with multichannel pipet • f. Add 110 uL of Lysis buffer to all wells • g. Incubate plates at RT for 30 min while shaking • 4. Transfer 100 uL of cell lysis to each prepared Elisa plate • 5. Add 100 uL of the standard pc-KIT dilutions to the standard wells in column 12 • a. Top concentration=2000 pg/mL • b. 2× dilutions • 6. Incubate ELISA plate with cell lysate for 2 hours at RT • 7. Wash Plate with wash buffer (wash 1) • 8. Repeat wash (wash 2) • 9. […] Add 100 uL of diluted anti-pY-HRP (1/1000 dilution in detection antibody dilution buffer) and incubate 2 hours at RT • 11. Wash plate with wash buffer (wash 1) • 12. Repeat wash (wash 2) • 13. Repeat wash (wash 3) • 14. Add 100 uL of substrate solution to each well • 15. Incubate plates 20 min • Note: Plate development is indicated by aqua color • 16. Add 50 uL of stop solution to each well • 17. Determine optical density on Bitek Synergy Neo2: • a. Make new experiment
Select absorbance 1 set to 450 nm

Kinetic solubility assay = type: physicochemical; conditions: kinetic solubility, 50 mM PB (pH 7.4), shaken 24 hours at RT
Method in brief: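 Test compounds from 10 mM DMSO stock were diluted in 50 mM phosphate buffer, pH 7.4, and shaken for 24 h at RT. After PTFE filtration and centrifugation, filtrate concentration was quantified by UPLC-UV/HPLC-UV against a standard curve.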

CSF-1R [2] = biological target: T1, CSF-1R (Homo sapiens, UniProt P07333); experiment: HTRF biochemical assay, CSF-1R; conditions: Table 4
T1 construct: purchased Invitrogen PV3249 (lot 662393N)
T1 sequence (P07333 20-972): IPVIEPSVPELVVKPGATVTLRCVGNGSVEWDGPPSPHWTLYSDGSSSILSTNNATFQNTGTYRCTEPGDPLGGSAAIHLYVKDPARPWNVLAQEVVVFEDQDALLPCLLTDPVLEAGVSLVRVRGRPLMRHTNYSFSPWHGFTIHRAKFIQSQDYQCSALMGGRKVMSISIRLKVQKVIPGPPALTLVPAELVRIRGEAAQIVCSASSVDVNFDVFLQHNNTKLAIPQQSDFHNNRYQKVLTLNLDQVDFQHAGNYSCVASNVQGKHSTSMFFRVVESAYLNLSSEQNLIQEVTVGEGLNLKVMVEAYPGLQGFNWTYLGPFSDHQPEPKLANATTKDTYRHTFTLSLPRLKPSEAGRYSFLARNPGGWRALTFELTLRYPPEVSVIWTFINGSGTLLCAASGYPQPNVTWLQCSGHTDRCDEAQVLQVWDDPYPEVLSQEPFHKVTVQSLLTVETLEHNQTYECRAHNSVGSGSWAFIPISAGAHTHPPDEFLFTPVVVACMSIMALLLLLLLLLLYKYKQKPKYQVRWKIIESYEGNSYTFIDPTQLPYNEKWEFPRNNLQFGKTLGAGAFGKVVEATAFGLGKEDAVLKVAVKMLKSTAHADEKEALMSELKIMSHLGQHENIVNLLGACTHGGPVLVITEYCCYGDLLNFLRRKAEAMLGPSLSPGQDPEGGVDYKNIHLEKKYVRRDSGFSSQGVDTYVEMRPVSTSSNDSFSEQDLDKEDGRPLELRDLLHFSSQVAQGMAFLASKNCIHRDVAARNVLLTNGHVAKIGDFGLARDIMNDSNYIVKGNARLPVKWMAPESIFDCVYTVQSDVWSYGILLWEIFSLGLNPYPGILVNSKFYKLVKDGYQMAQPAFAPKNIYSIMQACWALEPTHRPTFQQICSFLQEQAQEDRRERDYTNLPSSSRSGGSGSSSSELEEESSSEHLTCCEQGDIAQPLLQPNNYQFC
Method: (§1) Exemplary compounds were tested for ability to inhibit the phosphorylation of a peptide substrate by the tyrosine kinase wt KIT, PDGFRα, or CSF-1R. Assay procedures and results are described below.
(§2) Enzyme, substrate, and cofactors (ATP and Mn^2+) are combined in a well of a microtiter plate and incubated for 3 hours at 25° C. At the end of the incubation, the reaction is quenched by the addition of an EDTA-containing buffer.
(§3) The substrate used in the CSF-1R and PDGFRα assay is FAM-[…]-CONH2 (FAM is carboxyfluorescein). Peptide should be >95% purity. The substrate for the KIT assay is FAM-[…]-NH2.
(§4) • 1. To a well of a 384-wellplate add 5 μL of 2× enzyme buffer (or control). • 2. Add 100 nL of 100× compound. Enzyme and compound may be pre-incubated at this time if desired. • 3. Add 5 μL of 2× substrate buffer. • 4. Incubate plate at 25° C. for 3 hours. • 5. Add 10 uL of anti-phosphotyrosine antibody buffer. • 6. Read plate in BioTek Synergy Reader. Reaction Conditions for wtKIT Assay

PDGFRα [3] = biological target: T2, PDGFRα (Homo sapiens, UniProt P16234); experiment: HTRF biochemical assay, PDGFRα; conditions: Table 4, read-out: PDFGRα Biochemical IC50 avg
T2 construct: purchased Millipore 14-467 (lot 26321_ACTI)
T2 sequence (P16234 24-1089): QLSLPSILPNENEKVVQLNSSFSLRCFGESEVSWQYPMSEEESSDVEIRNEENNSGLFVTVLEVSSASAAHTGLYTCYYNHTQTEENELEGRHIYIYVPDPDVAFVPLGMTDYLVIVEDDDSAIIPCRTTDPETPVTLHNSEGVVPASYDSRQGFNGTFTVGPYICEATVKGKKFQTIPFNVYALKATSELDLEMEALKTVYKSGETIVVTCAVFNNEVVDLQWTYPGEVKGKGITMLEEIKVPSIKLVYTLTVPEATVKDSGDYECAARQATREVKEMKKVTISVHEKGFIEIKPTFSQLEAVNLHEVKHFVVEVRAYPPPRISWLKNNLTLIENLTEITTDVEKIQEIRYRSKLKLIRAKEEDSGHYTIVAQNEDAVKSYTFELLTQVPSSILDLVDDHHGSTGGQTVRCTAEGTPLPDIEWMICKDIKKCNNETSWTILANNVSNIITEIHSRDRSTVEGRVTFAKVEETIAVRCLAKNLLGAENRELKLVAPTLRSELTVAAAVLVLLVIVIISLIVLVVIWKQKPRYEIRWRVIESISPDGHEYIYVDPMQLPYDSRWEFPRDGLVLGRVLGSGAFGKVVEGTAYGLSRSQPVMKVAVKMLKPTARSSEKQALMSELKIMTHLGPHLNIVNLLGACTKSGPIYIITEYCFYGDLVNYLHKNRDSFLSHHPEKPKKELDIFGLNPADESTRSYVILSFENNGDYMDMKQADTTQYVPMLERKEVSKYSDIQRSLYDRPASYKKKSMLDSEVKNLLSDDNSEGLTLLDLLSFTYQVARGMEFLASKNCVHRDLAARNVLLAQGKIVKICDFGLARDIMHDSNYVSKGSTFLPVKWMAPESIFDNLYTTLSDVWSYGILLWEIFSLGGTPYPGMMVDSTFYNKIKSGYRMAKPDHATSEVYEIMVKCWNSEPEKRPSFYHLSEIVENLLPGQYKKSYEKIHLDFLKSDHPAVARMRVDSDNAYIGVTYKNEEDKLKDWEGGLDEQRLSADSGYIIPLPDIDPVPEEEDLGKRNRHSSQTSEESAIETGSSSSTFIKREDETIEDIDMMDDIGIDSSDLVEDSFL
Method: as §1, §2, §3, §4

wtKIT [4] = biological target: T3, wtKIT (Homo sapiens, UniProt P10721); experiment: HTRF biochemical assay, wtKIT (phosphorylation of a peptide substrate); conditions: Table 4
T3 construct: 1888289AM in the reaction mixtures
T3 sequence (P10721 26-976): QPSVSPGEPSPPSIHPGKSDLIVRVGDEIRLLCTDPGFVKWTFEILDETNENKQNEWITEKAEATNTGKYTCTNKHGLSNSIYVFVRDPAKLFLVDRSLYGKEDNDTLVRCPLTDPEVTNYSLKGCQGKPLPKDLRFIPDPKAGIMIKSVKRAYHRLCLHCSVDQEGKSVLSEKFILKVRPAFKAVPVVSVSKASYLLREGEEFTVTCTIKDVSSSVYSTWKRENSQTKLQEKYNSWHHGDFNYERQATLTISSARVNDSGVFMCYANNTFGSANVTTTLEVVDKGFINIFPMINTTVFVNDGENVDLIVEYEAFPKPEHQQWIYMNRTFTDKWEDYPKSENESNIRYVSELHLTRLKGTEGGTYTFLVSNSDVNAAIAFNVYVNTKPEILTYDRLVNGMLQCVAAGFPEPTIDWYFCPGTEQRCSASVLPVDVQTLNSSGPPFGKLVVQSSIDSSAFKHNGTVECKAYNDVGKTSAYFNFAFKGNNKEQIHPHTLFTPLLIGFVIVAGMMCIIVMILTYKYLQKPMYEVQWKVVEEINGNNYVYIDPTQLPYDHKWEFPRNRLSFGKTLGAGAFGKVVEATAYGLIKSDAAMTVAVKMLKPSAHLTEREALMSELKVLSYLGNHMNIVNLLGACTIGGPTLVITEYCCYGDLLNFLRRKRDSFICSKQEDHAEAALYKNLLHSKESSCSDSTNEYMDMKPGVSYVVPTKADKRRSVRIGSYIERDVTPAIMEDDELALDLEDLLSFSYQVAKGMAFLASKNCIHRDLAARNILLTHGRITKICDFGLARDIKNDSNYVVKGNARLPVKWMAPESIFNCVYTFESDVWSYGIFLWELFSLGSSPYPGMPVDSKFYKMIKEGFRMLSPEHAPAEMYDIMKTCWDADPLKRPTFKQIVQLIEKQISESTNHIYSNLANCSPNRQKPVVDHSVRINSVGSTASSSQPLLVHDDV
Method in brief: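 wtKIT (5.0 nM) phosphorylating 1 µM FAM-labelled peptide with 400 µM ATP and 10 mM MnCl2 in 100 mM HEPES pH 7.5, 1% DMSO, 3 h at 25 °C. EDTA quench; phosphopeptide detected with anti-phosphotyrosine antibody by HTRF. Enzyme titrated for 10-20% substrate conversion.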

PDGFRα [5] = biological target: T2, PDGFRα; experiment: Caliper biochemical assay, PDGFRα; conditions: Table 6
Method in brief: (§5)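 Kinase, FAM-labelled peptide substrate, ATP and Mn^2+ incubated with compound for 3 h at 25° C, then quenched with EDTA buffer. Substrate and phosphorylated product separated by microfluidic electrophoresis and quantified by fluorescence intensity; no-enzyme wells define 100% inhibition.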

CSF-1R [6] = biological target: T1, CSF-1R; experiment: Caliper biochemical assay, CSF-1R; conditions: Table 6
Method in brief: as §5

wtKIT [7] = biological target: T3, wtKIT; experiment: Caliper biochemical assay, wtKIT; conditions: Table 6, read-out: KIT Biochemical IC50 avg
Method in brief: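 Enzyme (5.0 nM wtKIT), 1 μM FAM-labelled peptide, 400 μM ATP and 10 mM MnCl2 in HEPES pH 7.5 with 1% DMSO, incubated 3 h at 25° C. EDTA quench; substrate and phosphoproduct separated by microfluidic electrophoresis and quantified by fluorescence.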

[8] = biological target: T4, BCRP (BCRP-MDCKII monolayer) (Homo sapiens, UniProt Q9UNQ0); experiment: MDCKII-BCRP bidirectional transport assay; type: in vitro ADME
T4 construct: host or cells: MDCKII (canine kidney) cells
T4 sequence (Q9UNQ0 1-655): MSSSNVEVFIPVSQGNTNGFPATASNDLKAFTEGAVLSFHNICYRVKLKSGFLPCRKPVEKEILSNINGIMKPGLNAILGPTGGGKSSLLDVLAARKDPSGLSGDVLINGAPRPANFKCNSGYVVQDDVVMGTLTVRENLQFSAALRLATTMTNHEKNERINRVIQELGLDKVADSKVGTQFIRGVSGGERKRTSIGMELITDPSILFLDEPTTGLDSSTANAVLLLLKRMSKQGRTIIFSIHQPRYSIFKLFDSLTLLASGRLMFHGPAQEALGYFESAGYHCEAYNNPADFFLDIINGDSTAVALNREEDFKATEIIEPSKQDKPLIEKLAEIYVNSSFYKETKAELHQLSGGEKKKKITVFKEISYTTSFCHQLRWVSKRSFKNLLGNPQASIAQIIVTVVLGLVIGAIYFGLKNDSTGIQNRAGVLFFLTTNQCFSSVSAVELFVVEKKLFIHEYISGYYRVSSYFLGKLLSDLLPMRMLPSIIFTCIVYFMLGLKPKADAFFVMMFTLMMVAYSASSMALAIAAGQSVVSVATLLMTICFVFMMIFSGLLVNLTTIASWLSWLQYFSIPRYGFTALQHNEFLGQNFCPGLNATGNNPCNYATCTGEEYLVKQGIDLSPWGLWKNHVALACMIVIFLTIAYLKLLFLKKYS
Method in brief: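 Bidirectional A→B and B→A transport across PreadyPort BCRP-MDCKII monolayers (days 12–15) was run in duplicate for 120 min at 37° C, 5% CO2 after a 15 min preincubation. Compound levels were measured by LC-MS/MS. Papp and recovery were calculated, with efflux ratio indicating transporter engagement.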

Compound | IC50 [1] [nM] | Solubility (μM) (Kinetic solubility assay) | IC50 (CSF-1R [2]) [nM] | IC50 (PDGFRα [3]) [nM] | IC50 (wtKIT [4]) [nM] | IC50 (PDGFRα [5]) [nM] | IC50 (CSF-1R [6]) [nM] | IC50 (wtKIT [7]) [nM] | MDCK-BCRP: Efflux Ratio [8] | MDCK-BCRP: Papp A-B ([8]; apical to basolateral)
Cc1ccc(-c2noc(C3CC3F)n2)cc1NC(=O)c1cnc2cc(COC3CC(O)C3)ccn12 (mixture of isomers) [Compound I-72] | ≤ 50 | **** (a solubility less than or equal to 2 μM) | ≤ 50 | 500 to 5000 | ≤ 50 | – | – | – | – | –
Cc1cc(C)c(-c2noc(C3CC3(F)F)n2)cc1NC(=O)c1cnc2ccccn12 (racemic) [Compound I-129] | – | **** (a solubility less than or equal to 2 μM) | ≤ 50 | 500 to 5000 | ≤ 50 | 500 to 5000 | ≤ 50 | ≤ 50 | – | –
COc1ccc2ncc(C(=O)Nc3cc(-c4noc(C[C@H](C)O)n4)ccc3C)n2c1 [Compound I-89] | ≤ 50 | – | 50 to 500 | 500 to 5000 | ≤ 50 | – | – | – | – | –
COCc1ccn2c(C(=O)Nc3cc(-c4noc(C)n4)ccc3C)cnc2c1 [Compound I-132] | – | **** (a solubility less than or equal to 2 μM) | 5000 to 30000 | 500 to 5000 | ≤ 50 | 500 to 5000 | 500 to 5000 | ≤ 50 | – | –
COCCS(=O)(=O)N1CC[C@H]1c1nc(-c2ccc(C)c(NC(=O)c3cnc4ccccn34)c2)no1 [Compound I-189] | – | ** (a solubility greater than 10 μM and less than or equal to 50 μM) | 500 to 5000 | 500 to 5000 | ≤ 50 | 500 to 5000 | 50 to 500 | 50 to 500 | – | –
Cc1ccc(-c2noc([C@H]3CC(F)(F)CN3)n2)cc1NC(=O)c1cnn2ccccc12 [Compound I-243] | – | * (a solubility greater than 50 μM) | 50 to 500 | 50 to 500 | ≤ 50 | 50 to 500 | 50 to 500 | ≤ 50 | – | –
COC(=O)N1CC(c2nc(-c3ccc(C)c(NC(=O)c4cnc5cc(OCC(C)(C)O)ccn45)c3)no2)C1 [Compound I-261] | ≤ 50 | ** (a solubility greater than 10 μM and less than or equal to 50 μM) | – | – | ≤ 50 | 50 to 500 | ≤ 50 | ≤ 50 | – | –
Cc1ccc(-c2noc(C3CC4(C3)CC(F)(F)C4)n2)cc1NC(=O)c1cnc2ccccn12 [Compound I-266] | ≤ 50 | **** (a solubility less than or equal to 2 μM) | – | – | ≤ 50 | 50 to 500 | ≤ 50 | ≤ 50 | – | –
Cc1ccc(-c2noc([C@@H]3CCCO3)n2)cc1NC(=O)c1cnc2ccccn12 [Compound I-396] | – | **** (a solubility less than or equal to 2 μM) | 50 to 500 | 500 to 5000 | ≤ 50 | 500 to 5000 | 50 to 500 | ≤ 50 | 2.86 | 8.25 10^−6 cm/s
Cc1ccc(-c2noc(C3CC(O)C3)n2)cc1NC(=O)c1cnn2cc(-c3ccn(C)n3)ccc12 (stereo not shown) [Compound I-652] | – | – | ≤ 50 | 50 to 500 | ≤ 50 | – | – | – | – | –
Cc1nc(-c2ccc(F)c(NC(=O)c3cnn4cc(-c5ccn(C)n5)ccc34)c2)no1 [Compound I-657] | – | – | 50 to 500 | 500 to 5000 | ≤ 50 | – | – | – | – | –
COCc1ccn2c(C(=O)Nc3cc(-c4noc(C)n4)ccc3F)cnc2c1 [Compound I-658] | – | – | 500 to 5000 | 5000 to 30000 | 500 to 5000 | – | – | – | – | –
Cc1nc(-c2ccc(C)c(NC(=O)c3cnc4cc(OCCCN(C(=O)OC(C)(C)C)C5COC5)ccn34)c2)no1 [Compound I-660] | – | – | 50 to 500 | 500 to 5000 | ≤ 50 | – | – | – | – | –
COCc1ccn2c(C(=O)Nc3cc(-c4noc(C(F)(F)F)n4)ccc3C)cnc2c1 [Compound I-664] | – | – | 50 to 500 | 500 to 5000 | 50 to 500 | – | – | – | – | –
